Measurements published in patent publication US4055640A, “Compositions and methods for controlling the growth of bacteria, fungi and algae using certain derivatives of N-(2,2-dichlorovinyl)salicylamides” (Nippon Kayaku Co., Ltd., priority 1975, dated 1977).
≈ marks a conversion by molar mass, not a printed value.

Tests used:
Pseudomonas fluorescens = experiment: Minimum inhibitory concentration, dilution methods (Example 14); type: cell-based
Text: (§1) Bacteriocidal activity and fungicidal activity of the active compounds of the present invention were examined by potato-dextrose agar dilution method, [2] waxman's liquid medium dilution method or [3] glucose bouillon medium dilution method. The results are shown in Table 4 below as the minimum inhibitory concentration (the minimum concentration of active compound found to produce 100% control of the test bacteria and fungi).

Geotrichum candium = experiment: as above; type: cell-based
Text: as §1

Chaetomium globosum = experiment: as above; type: cell-based
Text: as §1

Penicillium citrenum = experiment: Growth inhibition zones around treated clothes (Example 16); type: cell-based
Method: (§2) The emulsifiable concentrate which was prepared by Example 10 and which contained 10% of Compound No. 1 was entered to three vessels. These emulsifiable concentrates were diluted with water 500 times, 1000 times and 2000 times respectively. Emulsions were obtained. Each of silk, cotton and vinylon clothes was dipped into the three different concentrations of emulsions for 3 minutes and dried for 24 hours at room temperature. The clothes dreid were cut into a square of which a side was 1 cm long.
(§3) Test bacteria and fungi were inoculated on the whole surfaces of the plates of potato-dextrose agar medium. The square clothes were placed on the plates of agar culture medium of potato. The inoculated bacteria and fungi were incubated at 28° C for 4 days. The width of zones in which the growth of the test bateria and fungi was inhibited in the environment of the clothes was measured.

Aspergillus niger = experiment: as above; type: cell-based
Method: as §2, §3

Staphylococcus aureus = experiment: as above; type: cell-based
Method: as §2, §3

Bacillus subtilis = experiment: as above; type: cell-based
Method: as §2, §3

green algae = experiment: Degree of propagation on slime test boards (Example 27); type: cell-based; details: same method, shaking culture for 2 days
In short: (§4)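 Wood slime test boards were soaked in Waxman's liquid medium holding 0.02 part active compound (as 10% water-soluble concentrate) per 100 parts medium. Medium was inoculated with bacteria from a circular water system, fungi or green algae and shake-cultured 2 days at 27°-34° C. Propagation on the boards was scored with symbols.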

fungi = experiment: as above; type: cell-based; details: same method, shaking culture for 2 days
In short: as §4

[1] = tested on: bacteria gathered from circular water system; experiment: as above; type: cell-based; details: shaking culture for 2 days
In short: as §4

[2] = tested on: Fusarium wilt of cucumber; experiment: Exterminating test on Fusarium wilt of cucumber (Experimental Example 4); type: in vivo, Fusarium oxysporum f, cucumerinum; details: Fusarium, soil, 336 h, 500 ppm, soil drench 100 ml per pot, two weeks; read-out: Percentage of healthy seedlings
In short: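 Pots of steam-sterilized soil mixed with 20 g infested soil, sown with 18 cucumber seeds (Tokiwazibai), drenched with 100 ml aqueous suspension of 80% wettable powder. Benlate 50% wettable powder run as control. Disease scored two weeks after planting as percentage of healthy seedlings.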

[3] = tested on: Xanthomonas citri (citrus canker); experiment: Exterminating test on citrus canker (Experimental Example 6); type: in vivo; details: Xanthomonas citri, 336 h, read-out: Effect Index, 1,000 ppm, 2 weeks after inoculation
In short: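 Four-year-old potted summer orange seedlings sprayed with diluted 80% wettable powder, then needle-inoculated on leaves with Xanthomonas citri and held 24 h moist at 25 °C before greenhouse. Disease attack scored 2 weeks post-inoculation and expressed as an Effect Index.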

[4] = tested on: Aspergillus niger, Penicillium citrinum, Cladosporium harbarum and chaetomium globosum; experiment: Degree of growth inhibition of fungi on treated beach plates (Example 25); type: cell-based; parameters: scale not given here; details: numerical rating, 2 weeks
In short: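 Beech plates 5 cm square and 5 mm thick were dipped for 2 min in emulsifiable concentrate diluted 400- and 800-fold in water, then dried 24 h at room temperature. Plates were set on agar, sprayed with fungal spore suspensions and incubated 2 weeks at 28 °C and 95% humidity; growth inhibition was scored on a numerical rating.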

[5] = (1) potato-dextrose agar dilution method
[6] = (2) waxman's liquid medium dilution method

How did the minimum inhibitory concentration (Pseudomonas fluorescens; [5]) turn out when O=C(NC=C(Cl)Cl)c1ccccc1O [Compound No. 1, N-(β,β-dichlorovinyl) salicylamide] was run?
The minimum inhibitory concentration was 40 mc g/ml.

And the MIC (Pseudomonas fluorescens; Pseudomonas fluorescens, (2) waxman's liquid medium dilution method)?
Its MIC is 40 µg/mL (≈ 172 µM).

What about the MIC (Geotrichum candium; [5]) of the same molecule?
Its MIC is 10 µg/mL (≈ 43.1 µM).

What about the MIC (Geotrichum candium; [6]) of the same molecule?
Its MIC is 20 µg/mL (≈ 86.2 µM).

What about the MIC (Chaetomium globosum; [5]) of the same molecule?
Its MIC is 5 µg/mL (≈ 21.5 µM).

What about the MIC (Chaetomium globosum; [6]) of the same molecule?
The MIC was 10 µg/mL (≈ 43.1 µM).

And the “width of growth inhibition zones” value (Penicillium citrenum; Cotton, 0.005 %)?
Its value is 5 mm.

What about the “width of growth inhibition zones” value (Penicillium citrenum; Cotton, 0.01 %) of the same molecule?
Its value is 7 mm.

And the “width of growth inhibition zones” value (Penicillium citrenum; Cotton, 0.02 %)?
The value was 9 mm.

What about the “width of growth inhibition zones” value (Penicillium citrenum; Silk, 0.005 %) of the same molecule?
Its value is 4 mm.

What about the “width of growth inhibition zones” value (Penicillium citrenum; Silk, 0.01 %) of the same molecule?
The value was 6 mm.

What about the “width of growth inhibition zones” value (Penicillium citrenum; Silk, 0.02 %) of the same molecule?
The value was 7 mm.

And the “width of growth inhibition zones” value (Penicillium citrenum; Vinylon, 0.005 %)?
Its value is 3 mm.

What about the “width of growth inhibition zones” value (Penicillium citrenum; Vinylon, 0.01 %) of the same molecule?
Its value is 5 mm.

What about the “width of growth inhibition zones” value (Penicillium citrenum; Vinylon, 0.02 %) of the same molecule?
The value was 7 mm.

What about the “width of growth inhibition zones” value (Aspergillus niger; Cotton, 0.005 %) of the same molecule?
The value was 6 mm.

What about the “width of growth inhibition zones” value (Aspergillus niger; Cotton, 0.01 %) of the same molecule?
The value was 8 mm.

And the “width of growth inhibition zones” value (Aspergillus niger; Cotton, 0.02 %)?
The value was 11 mm.

And the “width of growth inhibition zones” value (Aspergillus niger; Silk, 0.005 %)?
Its value is 5 mm.

And the “width of growth inhibition zones” value (Aspergillus niger; Silk, 0.01 %)?
The value was 7 mm.

What about the “width of growth inhibition zones” value (Aspergillus niger; Silk, 0.02 %) of the same molecule?
Its value is 8 mm.

What about the “width of growth inhibition zones” value (Aspergillus niger; Vinylon, 0.005 %) of the same molecule?
The value was 4 mm.

What about the “width of growth inhibition zones” value (Aspergillus niger; Vinylon, 0.01 %) of the same molecule?
Its value is 6 mm.

What about the “width of growth inhibition zones” value (Aspergillus niger; Vinylon, 0.02 %) of the same molecule?
The value was 8 mm.

What about the “width of growth inhibition zones” value (Staphylococcus aureus; Cotton, 0.005 %) of the same molecule?
Its value is 5 mm.

What about the “width of growth inhibition zones” value (Staphylococcus aureus; Cotton, 0.01 %) of the same molecule?
The value was 9 mm.

What about the “width of growth inhibition zones” value (Staphylococcus aureus; Cotton, 0.02 %) of the same molecule?
The value was 13 mm.

What about the “width of growth inhibition zones” value (Staphylococcus aureus; Silk, 0.005 %) of the same molecule?
Its value is 5 mm.

What about the “width of growth inhibition zones” value (Staphylococcus aureus; Silk, 0.01 %) of the same molecule?
The value was 8 mm.

And the “width of growth inhibition zones” value (Staphylococcus aureus; Silk, 0.02 %)?
Its value is 12 mm.

What about the “width of growth inhibition zones” value (Staphylococcus aureus; Vinylon, 0.005 %) of the same molecule?
The value was 4 mm.

And the “width of growth inhibition zones” value (Staphylococcus aureus; Vinylon, 0.01 %)?
Its value is 7 mm.

And the “width of growth inhibition zones” value (Staphylococcus aureus; Vinylon, 0.02 %)?
Its value is 11 mm.

And the “width of growth inhibition zones” value (Bacillus subtilis; Cotton, 0.005 %)?
Its value is 3 mm.

What about the “width of growth inhibition zones” value (Bacillus subtilis; Cotton, 0.01 %) of the same molecule?
The value was 6 mm.

And the “width of growth inhibition zones” value (Bacillus subtilis; Cotton, 0.02 %)?
Its value is 10 mm.

And the “width of growth inhibition zones” value (Bacillus subtilis; Silk, 0.005 %)?
The value was 3 mm.

What about the “width of growth inhibition zones” value (Bacillus subtilis; Silk, 0.01 %) of the same molecule?
Its value is 6 mm.

What about the “width of growth inhibition zones” value (Bacillus subtilis; Silk, 0.02 %) of the same molecule?
Its value is 10 mm.

What about the “width of growth inhibition zones” value (Bacillus subtilis; Vinylon, 0.005 %) of the same molecule?
Its value is 2 mm.

What about the “width of growth inhibition zones” value (Bacillus subtilis; Vinylon, 0.01 %) of the same molecule?
Its value is 5 mm.

What about the “width of growth inhibition zones” value (Bacillus subtilis; Vinylon, 0.02 %) of the same molecule?
Its value is 9 mm.

What does the source list for CC(=O)Oc1ccccc1C(=O)NC=C(Cl)Cl [Compound No. 6, O-acetyl-N-(2,2-dichlorovinyl) salicylamide]?
Degree of propagation (green algae): -; Degree of propagation (fungi): -; Degree of propagation [1]: -; pest or weed control at 500 ppm [2]: 83%; pest or weed control at 1000 ppm [3]: 96.1%; Degree of growth inhibition ([4]; 0.0125 %): 3; Degree of growth inhibition ([4]; 0.025 %): 3
